Assay results taken from ChEMBL document CHEMBL3758128, “Studies on Aryl-Substituted Phenylalanines: Synthesis, Activity, and Different Binding Modes at AMPA Receptors” (J Med Chem, 2016).

Experiments:
Glutamate receptor 2 [1] = target: T1, Glutamate receptor 2 (Homo sapiens, UniProt P42262); assay: Displacement of [3H]AMPA from GluA2 LBD (unknown origin) incubated for 2 hrs by liquid scintillation counting method
Glutamate receptor 2 [2] = target: T2, Glutamate receptor 2 (Rattus norvegicus, UniProt P19491); assay: Displacement of [3H]AMPA from full length rat cloned GluA2(R)o receptor expressed in sf9 cells incubated for 1 to 2 hrs by liquid scintillation counting method
Glutamate receptor 2 [3] = target: T2, Glutamate receptor 2; assay: Antagonist activity against recombinant rat GluA2(Q)i expressed in xenopus oocytes assessed as inhibition of L-glutamate-induced […] by two electrode voltage clamp method; type: cell-based
[4] = target: Glutamate receptor ionotropic, kainate 1 (Rattus norvegicus, UniProt P22756); assay: biochemical
Description: Displacement of [3H]SYM2081 from recombinant rat GluK1(Q)1b receptor expressed in sf9 cells incubated for 1 to 2 hrs by liquid scintillation counting method

Glutamate receptor 3 = Glutamate receptor 3 (Rattus norvegicus, UniProt P19492); assay: biochemical
Description: Displacement of [3H]AMPA from rat cloned GluA3o receptor expressed in sf9 cells incubated for 1 to 2 hrs by liquid scintillation counting method

Glutamate receptor 1 = Glutamate receptor 1 (Rattus norvegicus, UniProt P19490); assay: biochemical
Description: Displacement of [3H]AMPA from rat cloned GluA1o receptor expressed in sf9 cells incubated for 1 to 2 hrs by liquid scintillation counting method

[5] = target: Glutamate receptor ionotropic, kainate 3 (Rattus norvegicus, UniProt P42264); assay: biochemical
Description: Displacement of [3H]SYM2081 from cloned rat GluK3A receptor expressed in sf9 cells incubated for 1 to 2 hrs by liquid scintillation counting method

[6] = target: Glutamate receptor ionotropic, kainate 2 (Rattus norvegicus, UniProt P42260); assay: biochemical
Description: Displacement of [3H]SYM2081 from cloned rat GluK2(V,C,R)A receptor expressed in sf9 cells incubated for 1 to 2 hrs by liquid scintillation counting method

Glutamate receptor 2 [7] = target: T1, Glutamate receptor 2; assay: Agonist activity at human GluA2(Q)i expressed in HEK293 cells assessed as enhancement of glutamate-evoked desensitized current by whole cell patch clamp method; type: cell-based

T2 sequence (P19491 whole entry): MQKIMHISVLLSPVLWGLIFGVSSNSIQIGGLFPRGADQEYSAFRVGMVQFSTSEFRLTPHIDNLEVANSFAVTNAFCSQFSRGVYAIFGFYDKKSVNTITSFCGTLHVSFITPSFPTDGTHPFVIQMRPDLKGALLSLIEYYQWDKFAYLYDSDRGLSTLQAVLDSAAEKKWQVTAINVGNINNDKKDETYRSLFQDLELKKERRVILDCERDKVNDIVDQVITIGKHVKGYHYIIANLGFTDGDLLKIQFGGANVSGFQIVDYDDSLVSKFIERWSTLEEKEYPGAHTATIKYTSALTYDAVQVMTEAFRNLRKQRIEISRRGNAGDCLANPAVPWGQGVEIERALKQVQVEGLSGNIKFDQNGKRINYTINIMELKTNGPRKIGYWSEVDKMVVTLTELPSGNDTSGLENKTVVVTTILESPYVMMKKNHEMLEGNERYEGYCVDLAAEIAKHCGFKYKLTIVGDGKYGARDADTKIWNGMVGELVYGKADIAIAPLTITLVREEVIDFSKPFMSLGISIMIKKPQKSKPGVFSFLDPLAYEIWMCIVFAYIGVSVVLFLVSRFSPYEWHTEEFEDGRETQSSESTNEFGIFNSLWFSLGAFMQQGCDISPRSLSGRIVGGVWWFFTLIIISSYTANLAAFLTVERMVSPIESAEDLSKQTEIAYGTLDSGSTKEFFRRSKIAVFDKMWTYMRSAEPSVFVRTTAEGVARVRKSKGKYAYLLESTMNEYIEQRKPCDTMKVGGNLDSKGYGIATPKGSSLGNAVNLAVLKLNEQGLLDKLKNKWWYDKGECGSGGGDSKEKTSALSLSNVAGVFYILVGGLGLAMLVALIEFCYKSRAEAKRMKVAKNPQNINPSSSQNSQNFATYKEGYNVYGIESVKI
Sequence of Glutamate receptor ionotropic, kainate 1 (P22756 whole entry): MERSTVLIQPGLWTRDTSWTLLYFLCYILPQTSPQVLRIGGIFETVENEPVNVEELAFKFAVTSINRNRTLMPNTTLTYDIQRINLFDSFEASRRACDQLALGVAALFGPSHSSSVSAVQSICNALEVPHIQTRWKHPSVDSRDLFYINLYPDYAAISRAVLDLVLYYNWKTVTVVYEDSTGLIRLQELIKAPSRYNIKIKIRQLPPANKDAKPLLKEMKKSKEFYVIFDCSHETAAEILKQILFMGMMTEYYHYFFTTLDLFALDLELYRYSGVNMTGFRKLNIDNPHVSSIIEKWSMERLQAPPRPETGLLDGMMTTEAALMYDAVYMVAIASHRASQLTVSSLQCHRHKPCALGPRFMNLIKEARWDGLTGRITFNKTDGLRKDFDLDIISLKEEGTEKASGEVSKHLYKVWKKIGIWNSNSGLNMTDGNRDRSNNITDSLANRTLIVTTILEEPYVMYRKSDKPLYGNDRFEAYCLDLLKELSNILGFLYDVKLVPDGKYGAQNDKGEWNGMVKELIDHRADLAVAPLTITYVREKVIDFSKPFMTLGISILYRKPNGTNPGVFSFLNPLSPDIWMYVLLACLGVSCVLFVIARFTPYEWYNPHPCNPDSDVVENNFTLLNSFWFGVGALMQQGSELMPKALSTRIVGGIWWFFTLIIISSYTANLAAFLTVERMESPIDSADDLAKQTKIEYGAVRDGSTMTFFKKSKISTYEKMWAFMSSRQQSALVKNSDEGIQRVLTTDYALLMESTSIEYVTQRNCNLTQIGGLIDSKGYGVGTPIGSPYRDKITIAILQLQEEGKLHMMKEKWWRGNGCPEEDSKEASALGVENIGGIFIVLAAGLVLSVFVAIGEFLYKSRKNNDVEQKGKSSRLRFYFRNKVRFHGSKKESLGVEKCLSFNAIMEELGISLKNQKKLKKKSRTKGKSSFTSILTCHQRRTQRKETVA
Sequence of Glutamate receptor ionotropic, kainate 2 (P42260 whole entry): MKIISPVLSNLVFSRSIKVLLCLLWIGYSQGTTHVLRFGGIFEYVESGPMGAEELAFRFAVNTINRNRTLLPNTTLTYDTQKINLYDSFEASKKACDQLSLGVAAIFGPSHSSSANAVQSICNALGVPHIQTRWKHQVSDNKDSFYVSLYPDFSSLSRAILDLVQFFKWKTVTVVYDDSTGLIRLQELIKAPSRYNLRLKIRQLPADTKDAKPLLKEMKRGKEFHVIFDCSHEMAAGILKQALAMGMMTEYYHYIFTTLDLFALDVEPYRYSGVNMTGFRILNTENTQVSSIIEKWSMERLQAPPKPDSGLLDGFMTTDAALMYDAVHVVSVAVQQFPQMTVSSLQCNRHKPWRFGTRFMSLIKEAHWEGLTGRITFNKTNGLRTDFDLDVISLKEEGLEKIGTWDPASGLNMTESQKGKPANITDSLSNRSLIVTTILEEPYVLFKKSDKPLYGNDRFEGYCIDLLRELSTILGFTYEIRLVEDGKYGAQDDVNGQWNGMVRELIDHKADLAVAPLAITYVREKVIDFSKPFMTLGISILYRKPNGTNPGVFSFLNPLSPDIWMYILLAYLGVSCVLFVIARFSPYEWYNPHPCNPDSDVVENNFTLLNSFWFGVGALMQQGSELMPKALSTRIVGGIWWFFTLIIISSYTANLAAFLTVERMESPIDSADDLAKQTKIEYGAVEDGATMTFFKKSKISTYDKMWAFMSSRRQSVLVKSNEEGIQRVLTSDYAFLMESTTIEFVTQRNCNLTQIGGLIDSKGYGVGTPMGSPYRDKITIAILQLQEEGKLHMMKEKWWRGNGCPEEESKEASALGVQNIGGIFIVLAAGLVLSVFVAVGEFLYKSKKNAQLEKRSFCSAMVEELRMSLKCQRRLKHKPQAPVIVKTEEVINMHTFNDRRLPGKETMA
Sequence of Glutamate receptor ionotropic, kainate 3 (P42264 whole entry): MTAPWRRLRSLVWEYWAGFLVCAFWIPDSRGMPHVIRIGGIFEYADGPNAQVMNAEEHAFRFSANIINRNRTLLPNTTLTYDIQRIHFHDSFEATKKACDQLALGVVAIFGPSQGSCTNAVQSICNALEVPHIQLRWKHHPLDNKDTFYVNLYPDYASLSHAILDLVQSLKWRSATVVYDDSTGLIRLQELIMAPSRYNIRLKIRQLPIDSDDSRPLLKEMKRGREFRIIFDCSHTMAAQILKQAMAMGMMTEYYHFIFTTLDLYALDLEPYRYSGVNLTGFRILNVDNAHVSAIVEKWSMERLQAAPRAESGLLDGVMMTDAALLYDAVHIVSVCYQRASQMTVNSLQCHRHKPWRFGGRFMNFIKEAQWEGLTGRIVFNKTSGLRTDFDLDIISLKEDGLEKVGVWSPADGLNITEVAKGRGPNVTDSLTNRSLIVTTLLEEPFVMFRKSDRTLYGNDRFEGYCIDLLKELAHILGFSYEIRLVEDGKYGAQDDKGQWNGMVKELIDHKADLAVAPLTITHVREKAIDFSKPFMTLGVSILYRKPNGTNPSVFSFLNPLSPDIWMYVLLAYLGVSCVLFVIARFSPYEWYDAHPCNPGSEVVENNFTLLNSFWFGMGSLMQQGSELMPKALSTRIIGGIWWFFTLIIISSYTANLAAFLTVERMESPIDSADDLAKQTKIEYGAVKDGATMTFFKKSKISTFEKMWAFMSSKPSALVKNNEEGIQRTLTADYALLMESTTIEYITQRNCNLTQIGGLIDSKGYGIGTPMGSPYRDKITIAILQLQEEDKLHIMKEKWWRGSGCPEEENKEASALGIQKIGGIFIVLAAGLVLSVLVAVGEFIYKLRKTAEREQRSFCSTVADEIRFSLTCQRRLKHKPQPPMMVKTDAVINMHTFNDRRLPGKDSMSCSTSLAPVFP
Sequence of Glutamate receptor 3 (P19492 whole entry): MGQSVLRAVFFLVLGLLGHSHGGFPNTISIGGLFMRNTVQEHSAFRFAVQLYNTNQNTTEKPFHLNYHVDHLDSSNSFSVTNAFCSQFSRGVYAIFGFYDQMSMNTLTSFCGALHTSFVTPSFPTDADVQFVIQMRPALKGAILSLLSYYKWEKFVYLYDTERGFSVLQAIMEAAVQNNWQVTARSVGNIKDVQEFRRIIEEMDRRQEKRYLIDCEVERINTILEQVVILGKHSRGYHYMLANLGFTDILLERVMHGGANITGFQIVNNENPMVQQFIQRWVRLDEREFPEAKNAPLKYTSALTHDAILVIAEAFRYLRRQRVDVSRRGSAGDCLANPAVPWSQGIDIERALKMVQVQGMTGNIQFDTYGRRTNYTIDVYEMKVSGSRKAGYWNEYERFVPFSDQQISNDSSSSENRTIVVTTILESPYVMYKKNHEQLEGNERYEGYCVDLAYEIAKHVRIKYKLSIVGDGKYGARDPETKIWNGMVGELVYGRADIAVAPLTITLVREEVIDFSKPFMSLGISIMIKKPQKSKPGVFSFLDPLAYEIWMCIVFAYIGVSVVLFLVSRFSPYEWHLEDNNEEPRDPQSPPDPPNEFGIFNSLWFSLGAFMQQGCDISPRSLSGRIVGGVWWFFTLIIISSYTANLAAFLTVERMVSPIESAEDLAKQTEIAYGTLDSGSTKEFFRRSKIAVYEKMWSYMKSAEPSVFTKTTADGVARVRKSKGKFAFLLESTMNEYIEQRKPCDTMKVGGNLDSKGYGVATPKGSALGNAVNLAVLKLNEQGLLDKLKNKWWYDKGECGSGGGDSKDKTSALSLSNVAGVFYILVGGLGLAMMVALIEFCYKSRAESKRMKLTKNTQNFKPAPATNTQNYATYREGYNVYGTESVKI
T1 sequence (P42262 whole entry, the tested form may be a part): as the sequence (P19491 whole entry) above, with T191M, A291T, G764R, P852A counted along it
Description for Glutamate NMDA receptor: Displacement of [3H]CGP39653 from NMDA receptor in rat brain homogenate after 60 mins by Packard TopCount microplate scintillation counting method

| SMILES | Ki [4] | Ki (Glutamate NMDA receptor) | further results |
| --- | --- | --- | --- |
| N[C@@H](Cc1cc(Cl)c(Cl)c(-c2cncc(O)c2)c1)C(=O)O | > 100 µM | > 50 µM | Ki (Glutamate receptor 2 [1]): 2.26 µM; Ki (Glutamate receptor 2 [2]): 1.74 µM; IC50 (Glutamate receptor 2 [3]): 3.7 µM; Ki (Glutamate receptor 3): 6.88 µM; Ki (Glutamate receptor 1): 6.65 µM; Ki [5]: > 100 µM; Ki [6]: > 100 µM |
| NC(Cc1cc(Cl)c(Cl)c(-c2ccc(O)c(O)c2)c1)C(=O)O (stereo not given) | > 50 µM | > 50 µM |  |
| N[C@H](Cc1cc(Cl)c(Cl)c(-c2cncc(O)c2)c1)C(=O)O | > 100 µM | > 50 µM | Ki (Glutamate receptor 2 [2]): > 100 µM; Ki (Glutamate receptor 3): > 100 µM; Ki (Glutamate receptor 1): > 100 µM; Ki [5]: > 100 µM; Ki [6]: > 100 µM |
| NC(Cc1cc(Cl)c(Cl)c(-c2ccc3c(c2)OCCO3)c1)C(=O)O (racemic) | > 50 µM | > 50 µM |  |
| NC(Cc1cc(Cl)c(Cl)c(-c2ccc(O)nc2)c1)C(=O)O (racemic) | > 50 µM | > 50 µM |  |
| NC(Cc1cc(Cl)c(Cl)c(-c2cncc(O)c2)c1)C(=O)O (racemic) | > 50 µM | > 50 µM |  |
| NC(Cc1cc(Cl)c(Cl)c(-c2cccc(S(N)(=O)=O)c2)c1)C(=O)O (racemic) | > 50 µM | > 50 µM |  |
| Nc1cccc(-c2cc(CC(N)C(=O)O)cc(Cl)c2Cl)c1 (racemic) | > 50 µM | > 50 µM |  |
| NC(Cc1cc(Cl)c(Cl)c(-c2cc(O)cc(O)c2)c1)C(=O)O (racemic) | > 50 µM | > 50 µM |  |
| NC(Cc1cc(Cl)c(Cl)c(-c2cccc(CO)c2)c1)C(=O)O (racemic) | > 50 µM | > 50 µM |  |
| COc1cccc(-c2cc(CC(N)C(=O)O)cc(Cl)c2Cl)c1 (racemic) | > 50 µM | > 50 µM |  |
| NC(Cc1cc(Cl)c(Cl)c(-c2ccc(CO)cc2)c1)C(=O)O (racemic) | > 50 µM | > 50 µM |  |
| NC(Cc1cc(Cl)c(Cl)c(-c2ccc(S(N)(=O)=O)cc2)c1)C(=O)O (racemic) | > 50 µM | > 50 µM |  |
| NC(Cc1cc(Cl)c(Cl)c(-c2cccc(O)c2)c1)C(=O)O (racemic) | 92.3 µM |  | Ki (Glutamate receptor 2 [2]): 5.03 µM; Ki (Glutamate receptor 3): 55.1 µM; Ki (Glutamate receptor 1): 17.1 µM; Ki [5]: 52.3 µM; Ki [6]: 78.1 µM |
| NS(=O)(=O)c1cc2c(cc1Cl)NC(C1CC3C=CC1C3)NS2(=O)=O (stereo not given) [CYCLOTHIAZIDE] |  |  | EC50 (Glutamate receptor 2 [7]): 7.6 µM |
